# Like-named read-outs stand apart in the source and are kept apart here.
# B1: vaso: N-terminal domain of calreticulin (amino acids 1-180, SEQ ID NO:3); given as fusion protein with maltose binding protein, MBP-vaso (protein)
# chain: EPAVYFKEQFLDGDGWTSRWIESKHKSDFGKFVLSSGKFYGDEEKDKGLQTSQDARFYALSASFEPFSNKGQTLVVQFTVKHEQNIDCGGGYVKLFPNSLDQTDMHGDSEYNIMFGPDICGPGTKKVHVIFNYKGKNVLINKDIRCKDDEFTHLYTLIVRPDNTYEVKIDNSQVESGSLE
# modifications: Vasostatin
# What was measured:
# [1] = tested on: Burkitt lymphoma cells (CA46 cell line); experiment: Burkitt lymphoma CA46 tumor growth in athymic mice treated with vaso and/or cyclophosphamide; type: in vivo, human; settings: vaso 200 μg/day s.c., cyclophosphamide 260 μg/mouse/day i.p. for 26 days; for average tumor size: buffer control 5.85; for average tumor weight: buffer control 6.75
# Protocol: (§1) Groups of 6-8 athymic BALB/c nu/nu mice, 6 weeks of age, were first irradiated with 400 rad, and 24 hr later were inoculated s.c. with 8×10^6 Burkitt lymphoma cells (CA46 cell line). Beginning 24 hr after cell inoculation, one group (n=6) of mice received daily s.c. inoculations of buffer alone (100 μl); a second group (n=6) received daily s.c. inoculations of a fusion protein of maltose binding protein and vasostatin, MBP-vaso, alone (200 μg in 100 μl of buffer); a third group (n=8) received daily s.c. inoculations of buffer alone (100 μl) plus cyclophosphamide once on day 9 post cell inoculation (2.6 mg i.p. in 100 μl of buffer); a fourth group (n=8) received daily s.c. inoculations of vaso (200 μg in 100 μl of buffer) plus cyclophosphamide once on day 9 post cell inoculation (2.6 mg i.p. in 100 μl of buffer); a fifth group received daily s.c. inoculations of buffer alone (100 μl) plus daily i.p. inoculations of cyclophosphamide (260 μg/mouse in 100 μl of buffer); and a sixth group received daily s.c. inoculations of vaso (200 μg/mouse in 100 μl of buffer) plus daily i.p. inoculations of cyclophosphamide (260 μg/mouse in 100 μl of buffer).
# [2] = tested on: athymic BALB/c nu/nu mice
# Protocol: as §1
# [3] = tested on: femoral marrow hematopoietic cells
# Protocol: as §1
# bone marrow cells = tested on: bone marrow cells
# Protocol: Groups of C57BL/6 mice (8 weeks of age) were treated as described in FIG. 14. FIG. 4A is a bar graph of the bone marrow cell count from mice treated for 16 days with either buffer alone (PBS, 100 μl/mouse/day s.c), Vaso (300 μg/mouse/day s.c) alone, Cytoxan (500 μg/mouse/day i.p.) alone, or vaso (300 μg/mouse/day s.c) plus Cytoxan (500 μg/mouse/day i.p.). Bone marrow was harvested on days 9 and 17 and the number of nucleated cells were counted. FIG. 4B is a bar graph of the bone marrow cell count from mice treated with for 11 days with either buffer alone (PBS, 100 μl/mouse/day s.c), Vaso (300 μg/mouse/day s.c) alone, Cytoxan (250 μg/mouse/day i.p.)×11 days plus Cytoxan 2 mg/mouse i.p. on day 11, or Cytoxan ([…] s.c, days 1-16). Bone marrow cell counts were obtained on day 17. FIG. 4C is a bar graph of peripheral blood white cells counts (WBC) on day 17 from mice from the same treatment groups described in B. […]
# (§2) In addition, rather than treating the mice with vaso prior to toxin exposure as described above, mice were simultaneously inoculated with cyclophosphamide and vaso. Thus, groups of mice (n=6) received either buffer alone (100 μl s.c) daily for 16 days, vaso (300 μg/mouse s.c) alone daily for 16 days, cyclophosphamide (500 μg/mouse i.p.) either alone or together with vaso (300 μg/mouse s.c) for 16 days. Other groups of mice (n=6) were inoculated daily for 11 days with cyclophosphamide (250 μg/mouse i.p.) either alone or together with vaso (300 μg/mouse s.c).
# [4] = tested on: peripheral blood white cells
# Protocol: Groups of C57BL/6 mice (8 weeks of age) were treated as described in FIG. 14. FIG. 4A is a bar graph of the bone marrow cell count from mice treated for 16 days with either buffer alone (PBS, 100 μl/mouse/day s.c), Vaso (300 μg/mouse/day s.c) alone, Cytoxan (500 μg/mouse/day i.p.) alone, or vaso (300 μg/mouse/day s.c) plus Cytoxan (500 μg/mouse/day i.p.). Bone marrow was harvested on days 9 and 17 and the number of nucleated cells were counted. FIG. 4B is a bar graph of the bone marrow cell count from mice treated with for 11 days with either buffer alone (PBS, 100 μl/mouse/day s.c), Vaso (300 μg/mouse/day s.c) alone, Cytoxan (250 μg/mouse/day i.p.)×11 days plus Cytoxan 2 mg/mouse i.p. on day 11, or Cytoxan (250 μg/mouse/day i.p.)×11 days plus Cytoxan 2 mg/mouse i.p. on day 11 plus Vaso (300 μg/mouse/day s.c, days 1-16). Bone marrow cell counts were obtained on day 17. FIG. 4C is a bar graph of peripheral blood white cells counts (WBC) on day 17 from mice from the same treatment groups described in B.
# FIG. 14 is a schematic diagram of different treatment groups used in the studies described herein. • Group 1: Buffer alone (100 μl/mouse/day s.c)×16 days • Group 2: Vaso alone (300 μg/mouse/day s.c)×16 days • Group 3: Cyclophosphamide (500 μg/mouse/day i.p.)×16 days Group 4: Cyclophosphamide (500 μg/mouse/day i.p.)×16 days plus vaso (300 μg/mouse/day s.c)×16 days Group 5: Cyclophosphamide (250 μg/mouse/day i.p.)×11 days plus Cyclophosphamide 2 mg/mouse i.p. on day 11 Group 6: Cyclophosphamide (250 μg/mouse/day i.p.)×11 days plus Cyclophosphamide 2 mg/mouse i.p. on day 11 plus vaso (300 μg/mouse/day s.c) days 1-16.
# as §2
# [5] = tested on: peripheral blood white cells; remark: listed apart in the source
# Protocol: Groups of mice (C57BL/B6, 6 weeks old, 10 mice/group) were treated for 4 days with either buffer (PBS, 100 μl/mouse/day), native vaso (200 μg/mouse/day s.c) or denatured vaso ([…]). On day 5, some of the animals were treated with cytoxan and the original treatment with buffer, native or denatured vaso was continued. On day 9 (5 days after one half of the mice had received cytoxan), peripheral blood white cell counts were measured.
# To examine whether the effects of vaso on the hematopoietic system are attributable to the native protein, the effects of native vaso were compared with the effects of vaso that had been denatured by boiling. Groups of mice (n=10) were treated for 4 days with either buffer (100 μl/mouse s.c); native vaso (200 μg/mouse/day s.c); or denatured vaso (300 μg/mouse/day s.c). On day 5, some of the mice were injected with cyclophosphamide (2 mg/mouse/i.p.) and treatment continued with either buffer, native vaso or denatured vaso. The experiment was terminated on day […], at which time peripheral blood counts were measured.
# [6] = same dose and regimen of cyclophosphamide plus vaso
molecule,measurement,setting,value
"O=P1(N(CCCl)CCCl)NCCCO1 (centres unmarked) [cyclophosphamide, reference compound]",average tumor size,[1],4.98 cm^2
same,average tumor weight,[1],4.69 g
same,mice alive on day 28,"[2]; cyclophosphamide 260 μg/mouse i.p. daily for 26 days, alone",8/8
same,mice alive on day 26,"[2]; cyclophosphamide 2.6 mg i.p. once on day 9 alone (daily buffer s.c.), 400 rad, CA46-inoculated, n=8",0/8
same,mice dead on day 13,"[2]; cyclophosphamide 2.6 mg i.p. once on day 9 alone, n=8",7 out of 8
same,histological appearance of femoral marrow,"[3]; cyclophosphamide only (260 μg/day, 26 days)",hypocellular and virtually depleted of hematopoietic cells
same,bone marrow cell counts on day 17,"bone marrow cells; cyclophosphamide 250 μg/mouse daily for 11 days then single 2 mg/mouse injection on day 12, alone",considerable reduction of bone marrow cell counts
same,bone marrow cell counts on day 9,"bone marrow cells; cytoxan 500 μg/mouse/day i.p. alone, vs PBS controls",did not reduce bone marrow cell counts on day 9
same,bone marrow cell counts on day 17,"bone marrow cells; cytoxan 500 μg/mouse/day i.p. for 16 days alone, vs PBS controls",reduced them on day 17
same,peripheral white blood cell counts on day 17,"[4]; cyclophosphamide 250 μg/mouse daily for 11 days then 2 mg/mouse on day 12, alone, vs untreated controls",reduction in white blood cell counts
same,average percent neutrophils on day 17,"[4]; cyclophosphamide 250 μg/mouse daily for 11 days then 2 mg/mouse on day 12, alone, controls 10-17%",13.4%
same,average percent lymphocytes on day 17,"[4]; cyclophosphamide 250 μg/mouse daily for 11 days then 2 mg/mouse on day 12, alone, controls 72-83%",62%
same,peripheral blood white cell counts,"[5]; cyclophosphamide 2 mg/mouse i.p. with buffer, vs buffer-only controls",markedly reduced
B1,average tumor size,[1],4.85 cm^2
same,average tumor weight,[1],3.79 g
same,mice alive on day 28,[2]; cyclophosphamide 260 μg/mouse i.p. daily in conjunction with vasostatin 200 μg/mouse s.c. daily,8/8
same,"gross and microscopic examination of liver, spleen, kidneys, heart, lung, lymph nodes and bone marrow","[2]; surviving mice, high dose cyclophosphamide plus vaso, day 26",No abnormalities were noted
same,mice alive and well on day 26,"[2]; vaso 200 μg s.c. daily plus cyclophosphamide 2.6 mg i.p. once on day 9, n=8, p<0.0001 vs cyclophosphamide alone",8/8
same,mice alive and well on day 28,[2]; vasostatin alone 200 μg s.c. daily,6/6
same,histological appearance of femoral marrow,"[3]; cyclophosphamide 260 μg/day plus vasostatin 200 μg/day, 26 days",indistinguishable from a normal control marrow
same,bone marrow cell counts on day 17,bone marrow cells; Vaso 300 μg/mouse/day s.c. for 16 days with cyclophosphamide 250 μg/mouse daily for 11 days then 2 mg/mouse on day 12,prevented the occurrence of a reduction in bone marrow cell counts
same,bone marrow cell count on days 9 and 17,bone marrow cells; cyclophosphamide 500 μg/mouse/day i.p. plus vasostatin 300 μg/mouse/day s.c.,higher than in the control mice and in the mice treated with cytoxan
same,average percent lymphocytes on day 17,[4]; [6],25%
same,average percent neutrophils on day 17,[4]; [6],63%
same,white blood cells in the circulation on day 17,[4]; vaso in conjunction with cyclophosphamide 250 μg/mouse daily for 11 days then 2 mg/mouse,significantly greater number of white blood cells
same,peripheral blood white cell counts after cyclophosphamide (alleviation of toxicity),[5]; cyclophosphamide 2 mg/mouse i.p. plus native vaso 200 μg/mouse/day s.c. or denatured vaso 300 μg/mouse/day s.c.,minimally different from those of the control mice

# Reference: US7812117B2, “Vasostatin as marrow protectant” (The United States of America as represented by the …, priority 1998, dated 2010)
